The values below come from the supplement of paper PMC7108870.

Test [1] has as its system HEK293sieSTAT3(Y640F). In words: drug sensitivity score (DSS), cytotoxicity CellTox Green (DSS (dimensionless)); higher = more cytotoxic; extreme values may be limits of the assay. Particulars: 72 h; STAT3 variant: Y640F (constitutively active). In a few lines:
(§1)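 A drug sensitivity score, based on the area of the dose-response curve, was calculated in Breeze after normalising values to negative and positive control wells. It came from HEK293 cells carrying a STAT3-dependent luciferase reporter and overexpressing wild-type or mutant STAT3, plated at 20 μl of 100,000 cells/ml onto compounds acoustically pre-plated at 5 concentrations in 10-fold dilutions in 384-well plates. Following 72 hours at 37°C and 5% CO2, CellTox Green fluorescence (485/520 nm) and then CellTiter-Glo luminescence were read on a PHERAstar FS.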

The test system of test [2] is HEK293sieSTAT3(wt). The test is described as above. Conditions: 72 h; STAT3 variant: wild type. In a few lines:
as §1

The test system of test [3] is HEK293sieSTAT3(Y640F). In words: drug sensitivity score (DSS), viability CellTiter-Glo (DSS (dimensionless)); higher = more growth inhibition; extreme values may be limits of the assay. Conditions: 72 h; STAT3 variant: Y640F (constitutively active). In a few lines:
as §1

The subject of test [4] is HEK293sieSTAT3(wt). The description is as above. Conditions: 72 h; STAT3 variant: wild type. In a few lines:
as §1

As to `O=C(NOCCO)c1ccc2cncn2c1Nc1ccc(I)cc1F` [GDC-0623] (top concentration tested 2500 nM), the drug sensitivity score in test [1], in test [2], in test [3] and in test [4] was 0 throughout.

With `CN1CCC(CNc2ccc3ncc(-c4cccc(OC(F)(F)F)c4)n3n2)CC1` [SGI-1776] (top concentration tested 10000 nM), the drug sensitivity score amounted to 4.99 in test [1], 7.56 in test [2], 6.8 in test [3] and 9.07 in test [4].

Regarding `CN[C@@H]1C[C@H]2O[C@@](C)([C@@H]1OC)n1c3ccccc3c3c4c(c5c6ccccc6n2c5c31)C(=O)N[C@H]4O` [UCN-01] (top concentration tested 10000 nM), the drug sensitivity score is 3.93 in test [1], 9.92 in test [2], 28.3 in test [3] and 29.5 in test [4].

For the molecule `Nc1nc2[nH]cnc2c(=S)[nH]1` [Thioguanine] (top concentration tested 10000 nM), the drug sensitivity score was 0 in test [1], 1.43 in test [2], 9.91 in test [3] and 9.24 in test [4].

For `Cc1nc(Nc2ncc(C(=O)Nc3c(C)cccc3Cl)s2)cc(N2CCN(CCO)CC2)n1` [Dasatinib] (top concentration tested 1000 nM), the drug sensitivity score in test [1] was found to be 0; in test [2] it was 1.81; in test [3] it was 6.45; in test [4], 2.74.

With `CCc1c2c(nc3ccc(O)cc13)-c1cc3c(c(=O)n1C2)COC(=O)[C@]3(O)CC` [SN-38] (top concentration tested 10000 nM), the drug sensitivity score in test [1] turned out to be 14.3; in test [2], 22.4; in test [3] it was 42; in test [4], 40.7.

In the case of `CNC(=O)c1ccc(N2C(=S)N(c3cnc(C#N)c(C(F)(F)F)c3)C(=O)C23CCC3)cc1F` [ARN 509] (top concentration tested 10000 nM), the drug sensitivity score in test [1] amounted to 0; in test [2], 0; in test [3], 2.68; in test [4] it was 2.33.

Regarding `CNC(=O)c1cccc(-c2ccc3c(N4CCOC[C@@H]4C)nc(N4CCOC[C@@H]4C)nc3n2)c1` [AZD2014] (top concentration tested 10000 nM), the drug sensitivity score in test [1] is 0; in test [2], 4.19; in test [3], 18; in test [4], 20.1.

As for `CC(C)CC(=O)Nc1n[nH]c2c1CN(C(=O)C1CCN(C)CC1)C2(C)C` (top concentration tested 10000 nM), the drug sensitivity score worked out at 4.64 in test [1], 19 in test [2], 12.4 in test [3] and 13.4 in test [4].

On to `Cn1cnc2c(F)c(Nc3ccc(Br)cc3F)c(C(=O)NOCCO)cc21` [Binimetinib] (top concentration tested 1000 nM), for which the drug sensitivity score turned out to be 0 in test [1], 0 in test [2], 1.87 in test [3] and 0.52 in test [4].

For the molecule `CCOC(=O)CCNc1cc(N2CCc3ccccc3CC2)nc(-c2ccccn2)n1` [GSK-J4] (top concentration tested 100000 nM), the drug sensitivity score came to 10.8 in test [1], 10.9 in test [2], 18.8 in test [3] and 19.4 in test [4].

Take `CC[C@H](NC(=O)[C@H](C)NC)C(=O)N1C[C@@H](O)C[C@H]1Cc1c(-c2[nH]c3cc(F)ccc3c2C[C@@H]2C[C@H](O)CN2C(=O)[C@H](CC)NC(=O)[C@H](C)NC)[nH]c2cc(F)ccc12` [Birinapant] (top concentration tested 1000 nM): the drug sensitivity score in test [1] turned out to be 19.5; in test [2], 30.4; in test [3] it was 7.4; in test [4] it was 15.6.

Turning to `c1ccc2c(CCNc3ccc(Nc4ccncc4)cc3)c[nH]c2c1` [Serdemetan] (top concentration tested 10000 nM), the drug sensitivity score in test [1] stood at 0; in test [2], 1.74; in test [3] it was 5.06; in test [4] it was 7.89.

For the molecule `CCC/C=C/C=C/C(=O)O[C@H]1/C(=C/C(=O)OC)C[C@H]2C[C@H]([C@@H](C)O)OC(=O)C[C@H](O)C[C@@H]3C[C@H](OC(C)=O)C(C)(C)[C@](O)(C[C@@H]4C/C(=C/C(=O)OC)C[C@H](/C=C/C(C)(C)[C@]1(O)O2)O4)O3` [Bryostatin 1] (top concentration tested 100 nM), the drug sensitivity score worked out at 0.65 in test [1], 0.86 in test [2], 0 in test [3] and 0.13 in test [4].

For `Cn1cc(CNCC2CCN(c3ncc(C(=O)NO)cn3)CC2)c2ccccc21` [Quisinostat] (top concentration tested 1000 nM), the drug sensitivity score was found to be 6.14 in test [1], 7.75 in test [2], 16.3 in test [3] and 17.9 in test [4].

Turning to `Cc1cn(-c2cc(NC(=O)c3ccc(C)c(Nc4nccc(-c5cccnc5)n4)c3)cc(C(F)(F)F)c2)cn1` [Nilotinib] (top concentration tested 10000 nM), the drug sensitivity score was 0.16 in test [1], 0 in test [2], 3.13 in test [3] and 3.74 in test [4].

Consider `CC1(C)NC(=O)N(c2ccc([N+](=O)[O-])c(C(F)(F)F)c2)C1=O` [Nilutamide] (top concentration tested 10000 nM), for which the drug sensitivity score worked out at 0 in test [1], 0.74 in test [2], 2.68 in test [3] and 0.69 in test [4].
